# Measured values: patent US9415106B2, “α-form zinc-phthalocyanine nanowires having enhanced water solubility and water dispersibility, composite of an α-form zinc-phthalocyanine nanowire/phenothiazine, and method for preparing same” (POHANG UNIVERSITY OF SCIENCE AND TECHNOLOGY INDUSTRY …, priority 2011, dated 2016)
# Experiments:
# [1] = Water solubility, dispersibility and stability of aqueous solution after sonication; format: physicochemical
# Method: An α-form ZnPc nanowire solution was prepared by adding 1 mg of α-form ZnPc nanowires collected from Si substrates into 5 ml of water, followed by sonication for various times in a bath sonicator (UC-10, JEIOTECH). The final solution was transferred for the measurement of optical absorbance using a UV-vis spectrometer (Agilent 8453 spectrophotometer). The concentration of the α-form ZnPc nanowire solution was determined by measurement of optical absorbance at 219 nm. The calibration curve was made by measuring the optical absorbance of a sequentially diluted solution at 219 nm.
# KB cells = assay: ROS generation in KB cells (Image-iT LIVE ROS Kit, H2DCFDA fluorescence); format: cell-based, human; settings: irradiated with NIR 808 nm, 3 W/cm^2
# Method: The PD activity of α-form ZnPc nanowire was proven by detecting reactive oxygen species generated upon illumination with NIR upon irradiation with NIR (λ=808 nm) laser. The reactive oxygen species generated from NIR-activated KB cells containing α-form ZnPc nanowires was assessed using Image-iT™ LIVE Reactive Oxygen Species (ROS) Kit.
# This experiment is based on 5-(and-6)-carboxy-2′7′-dichlorodihydrofluorescein diacetate (carboxy-H2DCFDA) as a fluorogenic marker for ROS permeated viable cells. In the presence of ROS, the reduced carboxy-H2DCFDA is supposed to be oxidized to emit bright green fluorescence. Therefore, the oxidatively stressed cells by ROS could be recognized by green fluorescence.
# The generation of reactive oxygen species (ROS) was monitored using Image-iT™ LIVE Reactive Oxygen Species Kit based on H2DCFDA (Molecular Probes/Invitrogen), following the manufacturer's protocol. Pre-seeded epidermoid mouth carcinoma cells (KB cells) were incubated with ZnPc nanowire solution (120 mg/L) at 37° C. with 5% CO2 for 18 hours. Then, after washing the cells thoroughly with phosphate buffer saline (PBS), the cells were irradiated with an 808 nm laser. […] In the presence of ROS, the reduced fluorescein compound is oxidized and emits bright green fluorescence. Fluorescence intensity was measured at 529 nm using a fluorescence spectrometer (Cary Eclipse, Varian).
# [2] = Photothermal property: temperature change of aqueous solutions upon laser irradiation; format: physicochemical; settings: 3 W/cm^2, 3 minutes
# Method: The PT property was examined by monitoring temperature changes of α-form ZnPc nanowire aqueous solutions (60, 80, 120 mg/L) upon light illumination at two different wavelengths (λ) of 660 nm, at which the highest absorption occurs, and 808 nm, at which most biological systems become transparent, at the power of 3 W/cm^2.
# The α-form ZnPc nanowire solution and zinc phthalocyanine tetrasulfonate (ZnPcS4) solutions at various concentrations (60, 80, 120 mg/L) were irradiated using a 660/808 nm laser (diode laser, JENOPTIK unique-mode GmbH, Germany) at 3 W/cm^2. The temperature of each solution was measured with a thermocouple connected temperature controller (Hanyoung, Korea) at 20-second intervals for a total of 3 minutes. Three sets per each solution were measured.
molecule,measurement,setting,value
"[Zn+2].c1ccc2c(c1)-c1nc-2nc2[n-]c(nc3nc([n-]c4nc(n1)-c1ccccc1-4)-c1ccccc1-3)c1ccccc21 [ZnPc powder, zinc-phthalocyanine]",water solubility (qualitative),[1],did not increase
zinc phthalocyanine tetrasulfonate [ZnPcS4],amount of ROS generated (green fluorescence),KB cells,insignificant
same,temperature of solution upon laser irradiation,"[2]; 660 nm (FIGS. 18, 19), from room temperature, 60-120 mg/L",similar
same,temperature of solution upon laser irradiation,"[2]; 808 nm, 120 mg/L",negligible temperature changes
